Test results reported in patent publication US11873298B2, “Compounds and uses thereof” (JANSSEN PHARMACEUTICA NV, priority 2017, dated 2024).

Columns and labels:
[1] = molecular target: T1, SCD5 (Homo sapiens, UniProt Q86SK9); assay: Growth inhibition of humanized yeast strain expressing SCD5 as sole desaturase; type: cell-based; settings: humanized yeast strain, 40 h
T1 construct: host or cells: S. cerevisiae ole1Δ strain (W303 pdr1Δ pdr3Δ background), plasmid pRS316 with TDH3 promoter and CYC1 terminator
T1 sequence (Q86SK9 1-330): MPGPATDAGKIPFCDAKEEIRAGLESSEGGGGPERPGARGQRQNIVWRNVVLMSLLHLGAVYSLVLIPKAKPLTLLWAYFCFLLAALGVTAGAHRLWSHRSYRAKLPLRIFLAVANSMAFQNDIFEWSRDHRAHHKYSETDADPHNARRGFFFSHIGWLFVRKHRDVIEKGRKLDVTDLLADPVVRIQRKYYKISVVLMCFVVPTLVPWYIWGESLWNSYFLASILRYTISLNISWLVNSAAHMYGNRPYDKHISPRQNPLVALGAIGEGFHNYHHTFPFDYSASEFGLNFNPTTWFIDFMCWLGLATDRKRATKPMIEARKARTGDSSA
Outline: (§1)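 Measured by optical density at 600 nm, growth of desaturase-dependent yeast (OLE1 deleted; human SCD1, human SCD5 or yeast Ole1 supplied from plasmid) was scored after 24 h (Ole1) or 40 h (SCD1, SCD5) at 30° C. in galactose media lacking uracil with DMSO-delivered compound.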

[2] = molecular target: T2, SCD1 (Homo sapiens, UniProt O00767); assay: Growth inhibition of humanized yeast strain expressing SCD1 as sole desaturase; type: cell-based; settings: humanized yeast strain, 40 h
T2 construct: host or cells: S. cerevisiae ole1Δ strain (W303 pdr1Δ pdr3Δ background), plasmid pRS316 with TDH3 promoter and CYC1 terminator
T2 sequence (O00767 1-359): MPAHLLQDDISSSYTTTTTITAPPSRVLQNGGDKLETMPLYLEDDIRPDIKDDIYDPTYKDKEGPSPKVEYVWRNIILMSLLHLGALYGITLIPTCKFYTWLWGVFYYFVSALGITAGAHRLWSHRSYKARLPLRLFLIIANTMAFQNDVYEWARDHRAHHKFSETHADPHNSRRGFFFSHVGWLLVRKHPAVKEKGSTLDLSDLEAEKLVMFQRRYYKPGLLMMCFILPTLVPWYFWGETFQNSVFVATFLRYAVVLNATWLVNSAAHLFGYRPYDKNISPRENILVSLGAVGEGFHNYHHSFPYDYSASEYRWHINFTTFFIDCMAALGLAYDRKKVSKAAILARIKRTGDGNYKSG
Outline: as §1

| Compound | IC50 [1] [µM] | IC50 [2] [µM] |
| --- | --- | --- |
| CCC(=O)N1CCCN(c2noc(-c3ccc4cnn(C5COC5)c4c3)n2)CC1 [Compound 962] | 0.01 | > 45 |
| COC(=O)N1CCCN(c2noc(-c3cc(F)c4cnn(C5COC5)c4c3)n2)CC1 [Compound 963] | 0.16 | > 45 |
| CCC1(C(=O)N2CCC(c3noc(-c4ccc5cnn(C6COC6)c5c4)n3)CC2)CC1 [Compound 964] | 0.03 | 0.31 |
| O=C(CC1CC1)N1CCCN(c2noc(-c3ccc4cnn(C5COC5)c4c3)n2)CC1 [Compound 965] | 0.01 | > 45 |
| CC(C)(C)OC(=O)N1CCC(c2ccc(-c3ccc4cnn(C5COC5)c4c3)cn2)CC1 [Compound 966] | 0.15 | > 45 |
| CC(C)(C)OC(=O)N1CCC(c2ccc(-c3ccc4cnn(C5COC5)c4c3)cc2)CC1 [Compound 967] | 1.52 | > 45 |
| CC(C)c1noc2ccc(-c3noc(C4CCN(C(=O)C5CCC5)CC4)n3)cc12 [Compound 968] | 2.83 | > 45 |
| O=S(=O)(C1CCC1)N1CCC(c2noc(-c3ccc4cnn(C5COC5)c4c3)n2)CC1 [Compound 969] | 1.42 | > 45 |
| O=C(N1CCN(c2noc(-c3ccc4cnn(C5COC5)c4c3)n2)CC1)C1(F)CC1 [Compound 970] | 0.00196 | 8.5 |
| CC(C)(C)OC(=O)N1CCC(c2nnc(-c3ccc4cnn(C5CCOC5)c4c3)o2)CC1 (stereo not drawn) [Compound 971] | 0.089 | > 45 |
| O=C(c1ncccc1F)N1CCN(c2noc(-c3ccc4cnn(C5COC5)c4c3)n2)CC1 [Compound 972] | 4.44 | > 45 |
| COC(=O)N1CCC(c2noc(-c3ccnc(C4CCCO4)c3)n2)CC1 (stereo not drawn) [Compound 973] | > 45 | > 45 |
| O=C(CC1CC1)N1CCC(c2noc(-c3ccc4cnn(C5CCOC5)c4c3)n2)CC1 (stereo not drawn) [Compound 974] | 0.01 | > 45 |
| CCC(=O)N1CCC(c2noc(-c3ccc4cnn(C5CCOC5)c4c3)n2)CC1 (stereo not drawn) [Compound 975] | 0.01 | > 45 |
| CC(C)(C)OC(=O)N1CCN(c2nnc(-c3ccc4cnn(C5COC5)c4c3)o2)CC1 [Compound 976] | 5.33 | > 45 |
| CC(C)(C)OC(=O)N1CCN(c2noc(-c3ccnc(OC4COC4)c3)n2)CC1 [Compound 977] | 5.94 | > 45 |
| CCC(=O)N1CCN(c2noc(-c3ccnc(NC4COC4)c3)n2)CC1 [Compound 978] | > 45 | > 45 |
| CC(C)(C)OC(=O)N1CCC(c2noc(-c3cccc(N4CCOCC4)c3)n2)CC1 [Compound 979] | 0.168 | > 45 |
| CC1(OC(=O)N2CCC(c3nnc(-c4ccc5cnn(C6COC6)c5c4)o3)CC2)CC1 [Compound 980] | 0.877 | > 45 |

| Compound | IC50 [1] [µM] | IC50 [2] [µM] |
| --- | --- | --- |
| CC1(OC(=O)N2CCC(c3nnc(-c4ccc5cnn(C6COC6)c5c4)o3)CC2)CCC1 [Compound 981] | 0.045 | > 45 |
| CC(C)(C)OC(=O)N1CCC(c2noc(-c3ccnc(OC4COC4)c3)n2)CC1 [Compound 982] | 0.327 | 0.01 |
| COC(=O)N1CCC(c2noc(-c3cccc(N4CCOCC4)c3)n2)CC1 [Compound 983] | 1.51 | > 45 |
| CC(C)(C)OC(=O)N1CC=C(c2cnc(-c3ccc4cnn(C5COC5)c4c3)nc2)CC1 [Compound 984] | > 45 | > 45 |
| CC(C)(C)OC(=O)N1CCC(c2cnc(-c3ccc4cnn(C5COC5)c4c3)nc2)CC1 [Compound 985] | 2.56 | > 45 |
| CC1(OC(=O)N2CCC(c3nnc(-c4ccc5cnn(C6CCOC6)c5c4)o3)CC2)CC1 (stereo not drawn) [Compound 986] | 0.048 | > 45 |
| O=C(C1CC1)N1CCN(c2nnc(-c3ccc4cnn(C5COC5)c4c3)o2)CC1 [Compound 987] | > 45 | > 45 |
| CC(C)(C)OC(=O)N1CCC(c2noc(-c3ccc4cnn(C5COC5)c4c3F)n2)CC1 [Compound 988] | 0.024 | > 45 |
| Fc1c(-c2nc(C3CCNCC3)no2)ccc2cnn(C3COC3)c12 [Compound 989] | > 45 | > 45 |
| CC(C)(C)OC(=O)N1CCC(c2noc(-c3ccc4cnn(C5CS(=O)(=O)C5)c4c3)n2)CC1 [Compound 990] | 0.01 | > 45 |
| O=C(C1CC12CC2)N1CCN(c2nnc(-c3ccc4cnn(C5COC5)c4c3)o2)CC1 (stereo not drawn) [Compound 991] | > 45 | > 45 |
| CC(C)(C)OC(=O)N1CCC(c2nc(-c3ccnc(C4CCOC4)c3)no2)CC1 (stereo not drawn) [Compound 992] | 0.081 | > 45 |
| O=C(C1CC2(CC2)C1)N1CCN(c2nnc(-c3ccc4cnn(C5COC5)c4c3)o2)CC1 [Compound 993] | 3.81 | > 45 |
| O=C(N1CCN(c2nnc(-c3ccc4cnn(C5COC5)c4c3)o2)CC1)C12CC(C1)C2 [Compound 994] | > 45 | > 45 |
| CC1(CC(=O)N2CCN(c3nnc(-c4ccc5cnn(C6COC6)c5c4)o3)CC2)CC1 [Compound 995] | > 45 | > 45 |
| O=C(C1CCC1)N1CCN(c2nnc(-c3ccc4cnn(C5COC5)c4c3)o2)CC1 [Compound 996] | 5.04 | > 45 |
| CC(C)(C)OC(=O)N1CCN(c2noc(-c3ccc4cnn(C5CS(=O)(=O)C5)c4c3)n2)CC1 [Compound 997] | 0.022 | > 45 |
| COC(=O)N1CCN(c2noc(-c3ccc4cnn(C5CS(=O)(=O)C5)c4c3)n2)CC1 [Compound 998] | 4.13 | > 45 |
| CC(C)(C)OC(=O)N1CCC(c2noc(-c3ccnc(C4CCOC4)c3)n2)CC1 (stereo not drawn) [Compound 999] | 0.01 | > 45 |

| Compound | IC50 [1] [µM] | IC50 [2] [µM] |
| --- | --- | --- |
| COC(=O)N1CCC(c2noc(-c3ccc4cnn(C5CS(=O)(=O)C5)c4c3)n2)CC1 [Compound 1000] | 0.65 | > 45 |
| O=C(C1CCC1)N1CCN(c2noc(-c3ccnc(NC4COC4)c3)n2)CC1 [Compound 1001] | 15.6 | > 45 |
| COC(=O)N1CCN(c2noc(-c3ccnc(OC4COC4)c3)n2)CC1 [Compound 1002] | 5.05 | > 45 |
| CC(C)(C)OC(=O)N1CCC(c2noc(-c3ccnc(C4CCCO4)c3)n2)CC1 (stereo not drawn) [Compound 1003] | 0.457 | > 45 |
| COC(=O)N1CCC(c2noc(-c3ccc4cnn(C5COC5)c4c3F)n2)CC1 [Compound 1004] | 0.297 | > 45 |
| CC(C)(C)OC(=O)N1CCC(c2noc(-c3ccc4oc(=O)n(C5COC5)c4c3)n2)CC1 [Compound 1005] | 0.01 | > 45 |
| CC(C)(C)OC(=O)N1CCC(c2noc(-c3ccc(OC4COC4)c(NC4COC4)c3)n2)CC1 [Compound 1006] | 0.637 | > 45 |
| COC(=O)N1CCN(c2noc(-c3ccnc(OC(CO)CO)c3)n2)CC1 [Compound 1007] | > 45 | > 45 |
| CC1(OC(=O)N2CCN(c3noc(-c4ccnc(NC5COC5)c4)n3)CC2)CC1 [Compound 1008] | 2.02 | > 45 |
| CC(C)(C)OC(=O)N1CCC(c2noc(-c3ccc4oc(=O)[nH]c4c3)n2)CC1 [Compound 1009] | 9.51 | > 45 |
| CC(C)(C)OC(=O)N1CC=C(c2ccc(-c3ccc4cnn(C5COC5)c4c3)nc2)CC1 [Compound 1010] | 0.816 | > 45 |
| CC(C)(C)OC(=O)N1CCN(c2noc(-c3ccc4cnn(C5COC5)c4c3)n2)CC(F)(F)C1 [Compound 1012] | 0.01 | 15 |
| COC(=O)N1CCN(c2noc(-c3cccc(OC4COC4)c3)n2)CC1 [Compound 1013] | 0.367 | > 45 |
| COC(=O)N1CCC(c2nc(-c3ccc4cnn(C5CS(=O)(=O)C5)c4c3)no2)CC1 [Compound 1014] | 4.82 | > 45 |
| COC(=O)N1CCC(c2noc(-c3ccnc(C4CCOC4)c3)n2)CC1 (stereo not drawn) [Compound 1015] | 0.429 | > 45 |
| CC1(OC(=O)N2CCC(c3noc(-c4ccnc(C5CCOC5)c4)n3)CC2)CC1 (stereo not drawn) [Compound 1016] | 0.0614 | > 45 |
| C[C@@H]1C[C@H](c2noc(-c3ccc4cnn(C5COC5)c4c3)n2)CCN1C(=O)OC(C)(C)C [Compound 1017] | 0.01 | 17.1 |
| C[C@H]1C[C@H](c2noc(-c3ccc4cnn(C5COC5)c4c3)n2)CCN1C(=O)OC(C)(C)C [Compound 1018] | 0.01 | 20.3 |
| C[C@@H]1C[C@@H](c2noc(-c3ccc4cnn(C5COC5)c4c3)n2)CCN1C(=O)OC(C)(C)C [Compound 1019] | 0.01 | 12.2 |
